Results taken from article PMC8343220, “The selectivity of α‐adrenoceptor agonists for the human α1A, α1B, and α1D‐adrenoceptors” (Pharmacology Research & Perspectives, 2021).
“Also recorded” adds a separate entry of the source. Where two headings read alike, the source gives them in different places. Marks after values point to notes of the source that are not given here.

Legend:
human α1A‐adrenoceptor [1] = target: T1, human α1A‐adrenoceptor (Homo sapiens, UniProt P35348); test: ^3H‐prazosin whole‐cell radioligand binding, CHO‐α1A cells
T1 construct: expressed in transfected cells; host or cells: CHO-K1
T1 sequence (P35348 1-466): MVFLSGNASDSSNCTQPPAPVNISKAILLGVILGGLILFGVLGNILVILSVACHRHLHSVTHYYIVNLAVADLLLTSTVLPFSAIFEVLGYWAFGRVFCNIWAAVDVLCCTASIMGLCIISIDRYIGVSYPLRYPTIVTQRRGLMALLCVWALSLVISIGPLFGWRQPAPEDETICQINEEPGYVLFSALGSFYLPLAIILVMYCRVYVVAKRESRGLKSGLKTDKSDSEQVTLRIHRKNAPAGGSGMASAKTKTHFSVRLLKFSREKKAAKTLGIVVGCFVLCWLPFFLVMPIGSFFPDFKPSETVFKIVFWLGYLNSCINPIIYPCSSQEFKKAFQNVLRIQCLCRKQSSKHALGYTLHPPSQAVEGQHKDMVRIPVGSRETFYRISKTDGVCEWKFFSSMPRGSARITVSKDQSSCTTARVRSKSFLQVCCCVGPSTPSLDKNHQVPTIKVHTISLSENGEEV

human α1B‐adrenoceptor [2] = target: T2, human α1B‐adrenoceptor (Homo sapiens, UniProt P35368); test: ^3H‐prazosin whole‐cell radioligand binding, CHO‐α1B cells
T2 construct: expressed in transfected cells; host or cells: CHO-K1
T2 sequence (P35368 1-520): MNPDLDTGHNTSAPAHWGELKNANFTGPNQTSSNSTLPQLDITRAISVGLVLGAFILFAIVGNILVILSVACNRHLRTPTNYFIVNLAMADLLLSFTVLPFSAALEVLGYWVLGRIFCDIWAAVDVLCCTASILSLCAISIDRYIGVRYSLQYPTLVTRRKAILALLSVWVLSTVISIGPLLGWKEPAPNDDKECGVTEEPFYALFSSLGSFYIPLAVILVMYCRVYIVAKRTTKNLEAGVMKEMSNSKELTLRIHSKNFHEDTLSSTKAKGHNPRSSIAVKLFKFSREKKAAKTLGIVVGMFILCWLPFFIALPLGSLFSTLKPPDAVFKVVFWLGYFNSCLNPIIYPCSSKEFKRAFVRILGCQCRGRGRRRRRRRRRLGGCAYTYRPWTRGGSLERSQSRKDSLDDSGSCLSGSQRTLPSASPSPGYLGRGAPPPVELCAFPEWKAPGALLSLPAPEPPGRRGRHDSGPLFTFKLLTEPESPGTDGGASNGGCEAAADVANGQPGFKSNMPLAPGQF

[3] = target: T3, human α1D‐adrenoceptor (full length) (Homo sapiens, UniProt P25100); test: ^3H‐prazosin whole‐cell radioligand binding, CHO‐α1D cells
T3 construct: human α1D‐adrenoceptor (full length) were used; expressed in transfected cells; host or cells: CHO-K1
T3 sequence (P25100 1-572): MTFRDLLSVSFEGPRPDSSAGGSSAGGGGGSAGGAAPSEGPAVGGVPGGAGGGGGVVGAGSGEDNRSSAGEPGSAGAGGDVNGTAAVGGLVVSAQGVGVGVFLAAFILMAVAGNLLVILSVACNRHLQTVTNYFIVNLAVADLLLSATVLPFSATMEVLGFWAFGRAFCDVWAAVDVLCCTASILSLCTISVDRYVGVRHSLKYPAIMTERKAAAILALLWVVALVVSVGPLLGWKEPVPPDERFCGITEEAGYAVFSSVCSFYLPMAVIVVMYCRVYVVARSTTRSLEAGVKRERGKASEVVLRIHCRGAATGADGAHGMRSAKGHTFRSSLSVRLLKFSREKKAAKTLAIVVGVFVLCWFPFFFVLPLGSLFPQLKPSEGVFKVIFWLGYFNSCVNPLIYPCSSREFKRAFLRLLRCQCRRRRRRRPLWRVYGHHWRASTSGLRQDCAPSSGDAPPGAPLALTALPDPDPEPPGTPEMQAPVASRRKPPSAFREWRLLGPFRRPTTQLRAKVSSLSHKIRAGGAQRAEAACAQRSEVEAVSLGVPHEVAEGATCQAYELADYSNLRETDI

human α1A‐adrenoceptor [4] = target: T1, human α1A‐adrenoceptor; test: Intracellular free calcium mobilization, CHO‐α1A cells; type: cell-based
human α1B‐adrenoceptor [5] = target: T2, human α1B‐adrenoceptor; test: Intracellular free calcium mobilization, CHO‐α1B cells; type: cell-based
[6] = target: T3, human α1D‐adrenoceptor (full length); test: Intracellular free calcium mobilization, CHO‐α1D cells; type: cell-based
[7] = system: parental CHO cell line without any transfected receptors; test: Intracellular calcium mobilization, parent CHO cells without transfected receptors; type: cell-based, Chinese hamster; conditions: Cricetulus griseus; CHO cells without transfected receptors; response at maximum concentration used (c2), as % of ionomycin (10μM) response; mean ± s.e.m.; read-out: Intracellular calcium release % ionomycin
human α1A‐adrenoceptor [8] = target: T1, human α1A‐adrenoceptor; test: ERK1/2‐phosphorylation (Surefire Alphascreen), CHO‐α1A cells; type: cell-based
human α1B‐adrenoceptor [9] = target: T2, human α1B‐adrenoceptor; test: ERK1/2‐phosphorylation (Surefire Alphascreen), CHO‐α1B cells; type: cell-based
[10] = target: T3, human α1D‐adrenoceptor (full length); test: ERK1/2‐phosphorylation (Surefire Alphascreen), CHO‐α1D cells; type: cell-based
[11] = system: parental CHO cell line without any transfected receptors; test: ERK1/2‐phosphorylation, parent CHO cells without transfected receptors; type: cell-based, Chinese hamster
human α1A‐adrenoceptor [12] = target: T1, human α1A‐adrenoceptor; test: ^3H‐cAMP accumulation, CHO‐α1A cells; type: cell-based
human α1B‐adrenoceptor [13] = target: T2, human α1B‐adrenoceptor; test: ^3H‐cAMP accumulation, CHO‐α1B cells; type: cell-based; conditions: CHO‐α1B cells
[14] = target: T3, human α1D‐adrenoceptor (full length); test: ^3H‐cAMP accumulation, CHO‐α1D cells; type: cell-based; conditions: cAMP accumulation without forskolin
human α1A‐adrenoceptor [15] = target: T1, human α1A‐adrenoceptor; test: ^3H‐cAMP accumulation in the presence of 10 μM forskolin, CHO‐α1A cells; type: cell-based
human α1B‐adrenoceptor [16] = target: T2, human α1B‐adrenoceptor; test: ^3H‐cAMP accumulation in the presence of 10 μM forskolin, CHO‐α1B cells; type: cell-based
[17] = target: T3, human α1D‐adrenoceptor (full length); test: ^3H‐cAMP accumulation in the presence of 10 μM forskolin, CHO‐α1D cells; type: cell-based
[18] = system: parental CHO cell line without any transfected receptors; test: Forskolin‐stimulated cAMP accumulation, parent CHO cells without transfected receptors; type: cell-based, Chinese hamster
[19] = system: parental CHO cell line without any transfected receptors; test: ^3H‐cAMP accumulation, parent CHO cells without transfected receptors; type: cell-based, Chinese hamster; conditions: parent CHO cells; 10μM; n=6

With `Cc1cc(C(C)(C)C)cc(C)c1CC1=NCCN1` [Xylometazoline] the “Affinity selectivity ratio α1A vs α1B” value (human α1A‐adrenoceptor [1]) was 60.3 fold, the “Affinity selectivity ratio α1A vs α1D” value (human α1A‐adrenoceptor [1]) was 51.3 fold and the Kd (human α1A‐adrenoceptor [1]) was 115 nM. For the same molecule, the Kd (human α1B‐adrenoceptor [2]) was 6920 nM, the Kd (human α1B‐adrenoceptor [2]; Log KD, ^3H‐prazosin binding) was 6920 nM and the “Affinity selectivity ratio α1B vs α1D” value [3] was 1.2 fold. For the same molecule, the Kd [3] was 5890 nM, the Kd ([3]; 3H‐prazosin binding Log KD) was 5890 nM and the EC50 (human α1A‐adrenoceptor [4]) was 2.51 nM. The “Intracellular calcium release % ionomycin” value (human α1A‐adrenoceptor [4]) was 64.4 ± 2.7%, the “Log efficacy ratio KD /EC50” value (human α1A‐adrenoceptor [4]) was 1.66 and the “Intracellular calcium release % Ionomycin at 100 µM” value (human α1B‐adrenoceptor [5]) was 13.6 ± 3.3%. The “Intracellular calcium release % Ionomycin at 100 µM” value [6] was 18.6 ± 2.0%, the Emax [7] was 15.8 ± 2.7% and the EC50 (human α1A‐adrenoceptor [8]) was 3.8 nM. The “ERK1/2‐phosphorylation % PDBu” value (human α1A‐adrenoceptor [8]) was 98.8 ± 5.1%, the “ERK1/2‐phosphorylation potency in CHO‐α1A cells relative to untransfected parent CHO cells” value (human α1A‐adrenoceptor [8]) was > 10 fold and the “ERK1/2‐phosphorylation % PDBu” value (human α1B‐adrenoceptor [9]) was 66.2 ± 6.0%. For the same molecule, the “ERK1/2‐phosphorylation % PDBu” value [10] was 70.8 ± 7.8%, the Emax ([11]; Cricetulus griseus, CHO cells without transfected receptors, maximal response as % of PDBu (10μM) response, mean ± s.e.m., read-out: ERK1/2-phosphorylation % PDBu) was 56.2 ± 5.9% and the EC50 ([11]; Cricetulus griseus, CHO cells without transfected receptors, mean ± s.e.m., read-out: ERK1/2-phosphorylation Log EC50 (converted)) was 89.1 nM. For the same molecule, the “ERK1/2‐phosphorylation response in parent CHO cells” value ([11]; untransfected cells) was “stimulated ERK1/2‐phosphorylation responses”, the EC50 (human α1A‐adrenoceptor [12]) was 126 nM and the “cAMP accumulation % forskolin” value (human α1A‐adrenoceptor [12]; CHO‐α1A cells, % of 10 µM forskolin response) was 32.4 ± 5.7%. For the same molecule, the “cAMP accumulation Log EC50” value (human α1B‐adrenoceptor [13]) was “No response”, the “cAMP accumulation % forskolin” value (human α1B‐adrenoceptor [13]; % forskolin maximum response) was “No response” and the “cAMP Log EC50” value [14] was “No response”. For the same molecule, the EC50 (human α1A‐adrenoceptor [15]) was 30.2 nM, the “cAMP accumulation (in presence of forskolin) Fold increase” value (human α1A‐adrenoceptor [15]; CHO‐α1A cells, fold increase of the forskolin response) was 2.00 ± 0.09 fold and the IC50 (human α1B‐adrenoceptor [16]) was 9.12 nM. The “% inhibition of forskolin‐stimulated cAMP” value (human α1B‐adrenoceptor [16]; CHO‐α1B cells, footnote c) was 13.5 ± 1.8%a, the “Effect on cAMP accumulation in the presence of forskolin, CHO‐α1B cells” value (human α1B‐adrenoceptor [16]; not α1‐mediated) was “decrease in cAMP accumulation” and the IC50 [17] was 29.5 nM. The “% inhibition of forskolin‐stimulated cAMP” value ([17]; CHO‐α1D cells, decrease in forskolin‐stimulated cAMP accumulation (footnote b)) was “*26.5 ± 1.1%”, the “Effect on cAMP accumulation in the presence of forskolin, CHO‐α1D cells” value ([17]; not α1‐mediated) was “decrease in cAMP accumulation; also recorded: inhibitory cAMP response” and the “% inhibition of forskolin-stimulated cAMP” value ([18]; CHO cells without transfected receptors, footnote *: % inhibition) was 21.0 ± 2.4%*. For the same molecule, the IC50 ([18]; Cricetulus griseus, CHO cells without transfected receptors, footnote *: log IC50, read-out: log IC50, decrease in forskolin-stimulated cAMP accumulation (converted)) was 66.1 nM and the “Effect on cAMP accumulation in the presence of forskolin, parent cells” value ([18]; untransfected cells) was “decrease in cAMP accumulation”.
For `C=C[C@@]1(C)CC(=O)[C@]2(O)[C@@]3(C)[C@@H](O)CCC(C)(C)[C@@H]3[C@H](O)[C@H](OC(C)=O)[C@@]2(C)O1` [forskolin], the “cAMP accumulation response fold over basal” value [19] was 39.5 ± 3.2 fold over basal.
